The text below walks through data of ChEMBL document CHEMBL3585328, “Colloidal and antibacterial properties of novel triple-headed, double-tailed amphiphiles: exploring structure-activity relationships and synergistic mixtures” (Bioorg Med Chem, 2015).

SMILES strings stand for the structures. Converted amounts (≈) assume the structure as drawn. The source made the active and inactive calls.

Series [1] relates to Pseudomonas aeruginosa. The experiment in a line: Antibacterial activity against Pseudomonas aeruginosa ATCC 27853 assessed as inhibition of bacterial growth incubated for 72 hrs by CLSI based method. The settings on record: ATCC 27853, 72 h. The format is functional.
The subject of series [2] is Streptococcus agalactiae. Description: Bactericidal activity against Streptococcus agalactiae J48 assessed as inhibition of bacterial growth incubated for 72 hrs followed by culture growth in Todd-Hewitt agar medium and incubated for 24 hrs at 37 degC. The format is functional, organism-based.
Series [3] relates to Staphylococcus aureus. The experiment in a line: Bactericidal activity against Staphylococcus aureus subsp. aureus ATCC 29213 assessed as inhibition of bacterial growth incubated for 72 hrs followed by culture growth in Todd-Hewitt agar medium and incubated for 24 hrs at 37 degC. The format is functional, organism-based.
Series [4] concerns Pseudomonas aeruginosa. The experiment in a line: Bactericidal activity against Pseudomonas aeruginosa ATCC 27853 assessed as inhibition of bacterial growth incubated for 72 hrs followed by culture growth in Todd-Hewitt agar medium and incubated for 24 hrs at 37 degC. The format is functional, organism-based.
For series [5], the system named is Bacillus cereus. Description: Antibacterial activity against Bacillus cereus assessed as inhibition of bacterial growth incubated for 72 hrs by CLSI based method. The format is functional.
Series [6] deals with Enterococcus faecalis. Description: Antibacterial activity against Enterococcus faecalis ATCC 29212 assessed as inhibition of bacterial growth incubated for 72 hrs by CLSI based method. The series is classed as functional. As to conditions: ATCC 29212, 72 h.
Series [7] deals with Staphylococcus aureus. The experiment in a line: Antibacterial activity against Staphylococcus aureus subsp. aureus ATCC 29213 assessed as inhibition of bacterial growth incubated for 72 hrs by CLSI based method. The settings on record: ATCC 29213, 72 h. The series is classed as functional.
Series [8] relates to Escherichia coli. The experiment in a line: Bactericidal activity against Escherichia coli ATCC 25922 assessed as inhibition of bacterial growth incubated for 72 hrs followed by culture growth in Todd-Hewitt agar medium and incubated for 24 hrs at 37 degC. The format is functional, organism-based.
The subject of series [9] is Escherichia coli. Description: Antibacterial activity against Escherichia coli ATCC 25922 assessed as inhibition of bacterial growth incubated for 72 hrs by CLSI based method. The format is functional. As to conditions: ATCC 25922, 72 h.
In series [10] the test system is Enterococcus faecalis. The experiment in a line: Bactericidal activity against Enterococcus faecalis ATCC 29212 assessed as inhibition of bacterial growth incubated for 72 hrs followed by culture growth in Todd-Hewitt agar medium and incubated for 24 hrs at 37 degC. The series is classed as functional, organism-based.
Series [11] relates to Bacillus cereus. Description: Bactericidal activity against Bacillus cereus assessed as inhibition of bacterial growth incubated for 72 hrs followed by culture growth in Todd-Hewitt agar medium and incubated for 24 hrs at 37 degC. The series is classed as functional, organism-based.
In series [12] the test system is Streptococcus agalactiae. Description: Antibacterial activity against Streptococcus agalactiae J48 assessed as inhibition of bacterial growth incubated for 72 hrs by CLSI based method. The series is classed as functional. As to conditions: J48, 72 h.
Series [13] is described as follows: Critical aggregation concentration by at 37 degC isothermal titration calorimetry method. The format is ADME. In general terms: ITC needs no label: the signal is the heat of the interaction.

Turning to `NC[C@H]1O[C@H](O[C@H]2[C@H](O)[C@@H](O[C@H]3O[C@H](CO)[C@@H](O)[C@H](N)[C@H]3O)[C@H](N)C[C@@H]2N)[C@H](N)C[C@@H]1O` [TOBRAMYCIN], the minimum inhibitory concentration (MIC) in the series on Pseudomonas aeruginosa [1] was 6.4 µM (≈ 2.99 µg/mL).

Take `CCCCCCCC[N+](C)(C)Cc1cc(C[n+]2ccccc2)cc(C[N+](C)(C)CCCCCCCC)c1`: the outcome in the series on Streptococcus agalactiae [2], in the series with Staphylococcus aureus [3], with Pseudomonas aeruginosa [4], in the series with Escherichia coli [8], in the series on Enterococcus faecalis [10] and in the series with Bacillus cereus [11] was Active. The minimal inhibitory concentration (MIC) in the series on Bacillus cereus [5], in the series on Enterococcus faecalis [6], with Pseudomonas aeruginosa [1], in the series with Staphylococcus aureus [7], with Escherichia coli [9] and in the series with Streptococcus agalactiae [12] was > 250 µM in each case.

Regarding `CCCCCCCCCCCCCC[N+](C)(C)Cc1cc(C[N+](C)(C)C)cc(C[N+](C)(C)CCCCCCCCCCCCCC)c1.[Br-].[Br-].[Br-]`, the result in the series on Streptococcus agalactiae [2], in the series with Staphylococcus aureus [3], with Pseudomonas aeruginosa [4], in the series on Escherichia coli [8], in the series on Enterococcus faecalis [10] and in the series with Bacillus cereus [11] was Active. Further, the minimal inhibitory concentration (MIC) was 4 µM in the series on Bacillus cereus [5]; 4 µM in the series on Enterococcus faecalis [6]; 125 µM in the series on Pseudomonas aeruginosa [1]; 4 µM with Staphylococcus aureus [7]; 8 µM with Escherichia coli [9]; 2 µM in the series with Streptococcus agalactiae [12]. The same compound yielded a CAC in series [13] of 0.61 mM.

For `CCCCCCCCCCCCCCCC[N+](C)(C)Cc1cc(C[N+](C)(C)C)cc(C[N+](C)(C)CCCCCCCCCCCCCCCC)c1.[Br-].[Br-].[Br-]`, the result in the series with Streptococcus agalactiae [2], in the series on Staphylococcus aureus [3], with Pseudomonas aeruginosa [4], in the series on Escherichia coli [8], with Enterococcus faecalis [10] and with Bacillus cereus [11] was Active. Moreover, the MIC in the series with Bacillus cereus [5] was 16 µM; in the series on Enterococcus faecalis [6], 32 µM; in the series on Pseudomonas aeruginosa [1], > 250 µM; with Staphylococcus aureus [7], 16 µM; with Escherichia coli [9], 63 µM; in the series with Streptococcus agalactiae [12], 8 µM. This compound registered a CAC in [13] of 0.16 mM.

Consider `CCCCCCCCCCCC[N+](C)(C)Cc1cc(C[N+](C)(C)C)cc(C[N+](C)(C)CCCCCCCCCCCC)c1.[Br-].[Br-].[Br-]`, for which the result in the series on Streptococcus agalactiae [2], in the series with Staphylococcus aureus [3], in the series with Pseudomonas aeruginosa [4], in the series on Escherichia coli [8], in the series on Enterococcus faecalis [10] and in the series with Bacillus cereus [11] was Active. Besides, the minimum inhibitory concentration (MIC) in the series with Bacillus cereus [5] was 2 µM; in the series on Enterococcus faecalis [6], 2 µM; with Pseudomonas aeruginosa [1], 16 µM; in the series on Staphylococcus aureus [7] it was 2 µM; with Escherichia coli [9] it was 4 µM; in the series with Streptococcus agalactiae [12], 2 µM. For the same compound, the CAC in [13] is on record as 2.5 mM.

Regarding `CCCCCCCCCCCCCC[N+](C)(C)Cc1cc(C[n+]2ccccc2)cc(C[N+](C)(C)CCCCCCCCCCCCCC)c1.[Br-].[Br-].[Br-]`, the outcome in the series on Streptococcus agalactiae [2], with Staphylococcus aureus [3], in the series on Pseudomonas aeruginosa [4], in the series with Escherichia coli [8], in the series with Enterococcus faecalis [10] and with Bacillus cereus [11] was Active. Besides, the MIC with Bacillus cereus [5] is 8 µM; in the series on Enterococcus faecalis [6], 4 µM; in the series on Pseudomonas aeruginosa [1], 63 µM; in the series on Staphylococcus aureus [7], 4 µM; in the series with Escherichia coli [9] it was 16 µM; in the series on Streptococcus agalactiae [12] it was 4 µM. Also, in series [13], the CAC worked out at 0.6 mM.

`CCCCCCCC[N+](C)(C)Cc1cc(C[N+](C)(C)C)cc(C[N+](C)(C)CCCCCCCC)c1`: the outcome in the series on Streptococcus agalactiae [2], with Staphylococcus aureus [3], in the series on Pseudomonas aeruginosa [4], with Escherichia coli [8], in the series on Enterococcus faecalis [10] and in the series on Bacillus cereus [11] was Active. For the same compound, the MIC in the series with Bacillus cereus [5], in the series on Enterococcus faecalis [6], in the series with Pseudomonas aeruginosa [1], with Staphylococcus aureus [7], in the series on Escherichia coli [9] and in the series with Streptococcus agalactiae [12] was > 250 µM throughout.

As to `CCCCCCCCCCCCCCCC[N+](C)(C)Cc1cc(C[n+]2ccccc2)cc(C[N+](C)(C)CCCCCCCCCCCCCCCC)c1.[Br-].[Br-].[Br-]`, the outcome with Streptococcus agalactiae [2], in the series on Staphylococcus aureus [3], with Pseudomonas aeruginosa [4], with Escherichia coli [8], with Enterococcus faecalis [10] and in the series on Bacillus cereus [11] was Active. Moreover, the MIC in the series with Bacillus cereus [5], in the series on Enterococcus faecalis [6], with Pseudomonas aeruginosa [1], in the series on Staphylococcus aureus [7], with Escherichia coli [9] and with Streptococcus agalactiae [12] was > 250 µM in each case. Moreover, the CAC in series [13] worked out at 0.18 mM.

In the case of `CCCCCCCCCC[N+](C)(C)Cc1cc(C[N+](C)(C)C)cc(C[N+](C)(C)CCCCCCCCCC)c1.[Br-].[Br-].[Br-]`, the result in the series with Streptococcus agalactiae [2], in the series on Staphylococcus aureus [3], in the series with Pseudomonas aeruginosa [4], with Escherichia coli [8], in the series with Enterococcus faecalis [10] and in the series on Bacillus cereus [11] was Active. Further, the minimum inhibitory concentration (MIC) in the series on Bacillus cereus [5] is 8 µM; in the series with Enterococcus faecalis [6] it was 8 µM; in the series with Pseudomonas aeruginosa [1], > 250 µM; in the series with Staphylococcus aureus [7] it was 16 µM; in the series on Escherichia coli [9], 125 µM; with Streptococcus agalactiae [12] it was 4 µM. The CAC in [13] was 12 mM.

As for `CCCCCCCCCC[N+](C)(C)Cc1cc(C[n+]2ccccc2)cc(C[N+](C)(C)CCCCCCCCCC)c1.[Br-].[Br-].[Br-]`, the outcome in the series with Streptococcus agalactiae [2], in the series on Staphylococcus aureus [3], with Pseudomonas aeruginosa [4], in the series on Escherichia coli [8], in the series on Enterococcus faecalis [10] and in the series on Bacillus cereus [11] was Active. Further, the minimal inhibitory concentration (MIC) in the series with Bacillus cereus [5] was found to be 8 µM; with Enterococcus faecalis [6], 8 µM; in the series on Pseudomonas aeruginosa [1] it was 63 µM; in the series on Staphylococcus aureus [7] it was 2 µM; in the series with Escherichia coli [9] it was 16 µM; in the series on Streptococcus agalactiae [12], 8 µM. Besides, the CAC in series [13] turned out to be 14 mM.

For `CCCCCCCCCCCC[N+](C)(C)Cc1cc(C[n+]2ccccc2)cc(C[N+](C)(C)CCCCCCCCCCCC)c1.[Br-].[Br-].[Br-]`, the outcome in the series on Streptococcus agalactiae [2], in the series on Staphylococcus aureus [3], in the series on Pseudomonas aeruginosa [4], with Escherichia coli [8], with Enterococcus faecalis [10] and with Bacillus cereus [11] was Active. Besides, the minimum inhibitory concentration (MIC) in the series with Bacillus cereus [5] amounted to 2 µM; in the series on Enterococcus faecalis [6], 2 µM; in the series on Pseudomonas aeruginosa [1], 8 µM; with Staphylococcus aureus [7], 2 µM; in the series on Escherichia coli [9] it was 4 µM; in the series with Streptococcus agalactiae [12], 1 µM. In addition, the CAC in series [13] came out at 2.4 mM.

The MIC is the smallest concentration in the dilution series that meets the test's criterion for growth inhibition.
